According to patent publication US9057727B2, “Screening methods using G-protein coupled receptors and related compositions” (The General Hospital Corporation, priority 2007, dated 2015):
Ends that are not written are not given here.

Assays:
MC3T3-E1 cells [1] = assay: cAMP screen of EALK-PTHrP(1-31)/(1-34) variants (% parent); assay type: cell-based
Excerpt: FIGS. 32A and 32B are graphs showing the effects of amino acid substitutions in the 29-31 region of EALK-PTHrP(1-31) (SEQ ID NO:94) (FIG. 32A) and the 29-33 region of EALK-PTHrP(1-34) (SEQ ID NO:112) (FIG. 32B) on induction of cAMP activity in MC3T3-E1 cells. Substitutions at position 29 for EALK-PTHrP(1-31) were G^29 to S^29 (SEQ ID NO:95-96), L^29 (SEQ ID NO:176), and N^29 to K^29 (SEQ ID NO:97-101). Substitutions at position 30 for EALK-PTHrP(1-31) were G^30 to D^30 (SEQ ID NO:102-106), W^30 (SEQ ID NO:177), and K^30 (SEQ ID NO:107). […] Substitutions for EALK-PTHrP(1-34) A^30 to A^33 (SEQ ID NO:113-116) and EALK-PTHrP(1-28)/PTH(29-34) (SEQ ID NO:117).
To optimize the activity of the EALK-PTHrP peptides, we generated EALK-PTHrP([…]) and PTHrP(1-34) variants with substitutions in the 29-33 region. In the 1-30 scaffold, Gly, Ser, Leu, Asn, Gln, Trp, Glu, and Lys were substituted at position 29; Gly, Ser, Leu, Asn, Asp, Trp, and Lys were substituted at position 30; and Ser, Leu, Asn, Val, Trp, Glu, and Lys were substituted at position 31. […] A predicted advantage of these longer-length peptides, relative to the PTHrP(1-30) scaffold, is that they will have longer a longer half-life in circulation due to slower clearance. The C-terminal substitutions were thus designed to provide the added chain length, but to avoid increasing R^0 binding affinity, which occurs when the native PTHrP(29-34) region (SEQ ID NO:186) is installed. These peptides were tested for cAMP activity in MC3T3-E1 cells.

MC3T3-E1 cells [2] = assay: cAMP in MC3T3-E1 cells, dose-response; assay type: cell-based; settings: Table 3; read-out: dose-response cAMP in MC3T3-E1 (EC50)
Method: In the 1-30 scaffold, Gly, Ser, Leu, Asn, Gln, Trp, Glu, and Lys were substituted at position 29; Gly, Ser, Leu, Asn, Asp, Trp, and Lys were substituted at position 30; and Ser, Leu, Asn, Val, Trp, Glu, and Lys were substituted at position 31. […] These peptides were tested for cAMP activity in MC3T3-E1 cells.

[3] = parent E18,A22,L25,K26-PTHrP(1-31)OH

Substance | screen cAMP (% parent) (MC3T3-E1 cells [1]; [3]) | further results
E18,A22,L25,K26,W29-PTHrP(1-31) (AVSEHQLLHDKGKSIQDERRRAFLLKLIWEI-OH) [E18, A22, L25, K26, W29-PTHrP(1-31)OH] | 142 | 
E18,A22,L25,K26,E29-PTHrP(1-31) (AVSEHQLLHDKGKSIQDERRRAFLLKLIEEI-OH) [E18, A22, L25, K26, E29-PTHrP(1-31)OH] | 100 | 
AVSEHQLLHDKGKSIQDERRRAFLLKLIAEI [E18, A22, L25, K26-PTHrP(1-31)NH, E18,A22,L25,K26-PTHrP(1-31)] |  | EC50 (MC3T3-E1 cells [2]): 112 pM
AVSEHQLLHDKGKSIQDARRRAFLHKLIAEI [A18, 22, K26-PTHrP(1-31)NH, A18,22,K26-PTHrP(1-31)] |  | EC50 (MC3T3-E1 cells [2]): 60 pM
AVSEHQLLHDKGKSIQDERRRAFLHHKIAE [E18, A22, K27-PTHrP(1-30)NH, E18,A22,K27-PTHrP(1-30)] |  | EC50 (MC3T3-E1 cells [2]): 82 pM
E18,A22,L25,K26,N29-PTHrP(1-31) (AVSEHQLLHDKGKSIQDERRRAFLLKLINEI-OH) [E18, A22, L25, K26, M29-PTHrP(1-31)OH] | 210 | 
E18,A22,L25,K26,V31-PTHrP(1-31) (AVSEHQLLHDKGKSIQDERRRAFLLKLIAEV-OH) [E18, A22, L25, K26, V31-PTHrP(1-31)OH] | 181 | 
E18,A22,L25,K26,K31-PTHrP(1-31) (AVSEHQLLHDKGKSIQDERRRAFLLKLIAEK-OH) [E18, A22, L25, K26, K31-PTHrP(1-31)OH] | 134 | 
E18,A22,L25,K26,A32-PTHrP(1-34) (AVSEHQLLHDKGKSIQDERRRAFLLKLIAEIATA-OH) [E18, A22, L25, K26, A32-PTHrP(1-34)OH] |  | screen cAMP (% parent) (MC3T3-E1 cells [1]; parent E18,A22,L25,K26-PTHrP(1-34)OH): 197 % parent
E18,A22,L25,K26,G30-PTHrP(1-31) (AVSEHQLLHDKGKSIQDERRRAFLLKLIAGI-OH) [E18, A22, L25, K26, G30-PTHrP(1-31)OH] | 286 | 
E18,A22,L25,K26,L30-PTHrP(1-31) (AVSEHQLLHDKGKSIQDERRRAFLLKLIALI-OH) [E18, A22, L25, K26, L30-PTHrP(1-31)OH] | 185 | 
